For five compounds, IC50 and melting point results are on record in article PMC9490060, “Synthesis and evaluation of anticancer activity of quillaic acid derivatives: A cell cycle arrest and apoptosis inducer through NF-κB and MAPK pathways” (Frontiers in Chemistry, 2022).

Series [1] deals with HCT116 (human colorectal cancer cell line). The series can be described thus: MTT anti-proliferative assay, HCT116. The format is cell-based. The conditions noted are these: Homo sapiens, HCT-116, 48 h incubation, means ± SD, n = 3. An excerpt:
(§1) The anti-proliferative activities against five human cancer cell lines, including HCT116 (human colorectal cancer cell line), MCF-7 (human breast cancer cell line), SW620 (human colorectal cancer cell line), BEL7402 (human hepatocellular carcinoma cell line), and HepG2 (human hepatocellular carcinoma cell line) were established for all the target compounds using the MTT assay.
(§2) The propidium iodide (PI) and Annexin V-FITC apoptosis detection kit were purchased from Invitrogen (Eugene, OR, United States). 3-(4,5-Dimethylthiazol-2-yl)-2,5-diphenyl-2H-tetrazolium bromide (MTT) was purchased from Sigma-Aldrich Co. (St. Louis, MO, United States). All human cell lines were used in this study, colorectal cancer cell HCT116, colorectal cancer cell SW620, breast cancer cell MCF-7, liver hepatocellular carcinoma cell BEL7402, liver hepatocellular carcinoma HepG2 and normal liver cell L02 were initially purchased from American Type Culture Collection (ATCC, Manassas, VA, United States). RPMI-1640 media, Dulbecco’s modified Eagle’s medium (DMEM), and foetal bovine serum (FBS) were provided from Gibco Company (Grand Island, NY, United States). Cell line MCF-7 and HepG2 were cultivated in DMEM containing 10% (v/v) heat-inactivated FBS, 100 units/ml penicillin and […] streptomycin (Grand Island, NY, United States). Cell lines HCT116, BEL7402, SW620, and L02 were cultivated in RPMI 1640 medium containing 10% (v/v) heat-inactivated FBS, 100 units/ml penicillin, and […] streptomycin. The cells were incubated at 37°C under a 5% CO2 and 90% relative humidity (RH) atmosphere.
(§3) Stock solutions were prepared by diluting target compounds in DMSO at concentrations (1.25, 2.5, 5, and 10 mM). The stock solution was then diluted (1.25, 2.5, 5, and 10 μM) with culture medium, and the concentration of DMSO was controlled not to exceed 0.1%.
(§4) Place the cells in a 96-well plate at an appropriate density to ensure exponential growth (1 × 10^4–1.2×10^4 cells per well) throughout the experiment, and then allow the cells to adhere for 24 h. The cells were then treated with continuous concentrations of each compound (1.25, 2.5, 5, and 10 μM) for 48 h. After 48 h of incubation, 15 μl of MTT solution was added to each well, and the final concentration was 2 mg/ml. Then incubate for another 4 h. After incubation, remove the MTT solution and add […] of DMSO to each well for staining. Shake vigorously for 10 min at room temperature to ensure complete dissolution. The optical density (OD) was read on a microplate reader (ELx 800, BioTek, Highland Park, Winooski, VT, United States) with a wavelength of 492 nm, and then the data was analyzed.
(In general: Formazan colour is commonly taken as a measure of viable cells.)

For series [2], the system named is MCF-7 (human breast cancer cell line). Nature of the series: MTT anti-proliferative assay, MCF-7. The format is cell-based. The conditions noted are these: Homo sapiens, MCF7, 48 h incubation, means ± SD, n = 3.
Description: as §1, §2, §3, §4

In series [3] the test system is BEL7402 (human hepatocellular carcinoma cell line). The series can be described thus: MTT anti-proliferative assay, BEL7402. The format is cell-based. The conditions noted are these: Homo sapiens, Bel-7402, 48 h incubation, means ± SD, n = 3.
Description: as §1, §2, §3, §4

Series [4] concerns HepG2 (human hepatocellular carcinoma cell line). The series can be described thus: MTT anti-proliferative assay, HepG2. The format is cell-based. The conditions noted are these: Homo sapiens, HepG2, 48 h incubation, means ± SD, n = 3.
Description: as §1, §2, §3, §4

Series [5] concerns SW620 (human colorectal cancer cell line). Nature of the series: MTT anti-proliferative assay, SW620. The format is cell-based. The conditions noted are these: Homo sapiens, SW-620, 48 h incubation, means ± SD, n = 3.
Description: as §1, §2, §3, §4

For orientation: IC50 means the concentration that inhibits the measured activity by half. Lower therefore signals inhibition by little substance. Usually melting point stands for the temperature of the solid-liquid transition. As for `Cc1ccc(-n2cc(COC(=O)[C@]34CCC(C)(C)C[C@H]3C3=CC[C@@H]5[C@@]6(C)CC[C@H](O)[C@@](C)(C=O)[C@@H]6CC[C@@]5(C)[C@]3(C)C[C@H]4O)nn2)cc1` [Compound A9, (1-(p-tolyl)-1H-1,2,3-triazol-4-yl)methyl (4aR,5R,6aS,6bR,8aR,9S,10S,12aR,12bR,14bS)-9-formyl-5,10-dihydroxy-2,2,6a,6b,9,12a-hexamethyl-1,3,4,5,6,6a,6b,7,8,8a,9,10,11,12,12a,12b,13,14b-octadecahydropicene-4a (2H)-carboxylate], the melting point was 204 to 206 °C. In addition, the IC50 in series [1] was over 10 µM. This compound gave an IC50 in series [2] of over 10 µM. The half-inhibitory concentration (IC50) in series [3] was over 10 µM. This compound also registered an IC50 in series [4] of over 10 µM. The half-inhibitory concentration (IC50) in series [5] was over 10 µM.
The compound `CC1(C)CC[C@]2(C(=O)OCc3cn(-c4ccc([N+](=O)[O-])cc4)nn3)[C@H](O)C[C@]3(C)C(=CC[C@@H]4[C@@]5(C)CC[C@H](O)[C@@](C)(C=O)[C@@H]5CC[C@]43C)[C@@H]2C1` [Compound A10, (1-(4-nitrophenyl)-1H-1,2,3-triazol-4-yl)methyl (4aR,5R,6aS,6bR,8aR,9S,10S,12aR,12bR,14bS)-9-formyl-5,10-dihydroxy-2,2,6a,6b,9,12a-hexamethyl-1,3,4,5,6,6a,6b,7,8,8a,9,10,11,12,12a,12b,13,14b-octadecahydropicene-4a (2H)-carboxylate] yielded a melting point of 193 to 194 °C. The same compound came in with a half-maximal inhibitory concentration (IC50) in series [1] of over 10 µM. In series [2], the half-inhibitory concentration (IC50) was over 10 µM. The IC50 in series [3] was over 10 µM. The IC50 in series [4] was over 10 µM. This compound gave an IC50 in series [5] of over 10 µM.
Turning to `CC1(C)CC[C@]2(C(=O)OCc3nnc(-c4ccccc4)o3)[C@H](O)C[C@]3(C)C(=CC[C@@H]4[C@@]5(C)CC[C@H](O)[C@@](C)(C=O)[C@@H]5CC[C@]43C)[C@@H]2C1` [Compound B1, (5-phenyl-1,3,4-oxadiazol-2-yl)methyl (4aR,5R,6aS,6bR,8aR,9S,10S,12aR,12bR,14bS)-9-formyl-5,10-dihydroxy-2,2,6a,6b,9,12a-hexamethyl-1,3,4,5,6,6a,6b,7,8,8a,9,10,11,12,12a,12b,13,14b-octadecahydropicene-4a (2H)-carboxylate], the melting point lay within 130 to 132 °C. The same compound returned an IC50 in series [1] of over 10 µM. This compound also displayed a half-inhibitory concentration (IC50) in series [2] of over 10 µM. The compound also returned a concentration for half-maximal inhibition (IC50) in series [3] of over 10 µM. In series [4], this compound registered an IC50 of over 10 µM. The compound also returned an IC50 in series [5] of over 10 µM.
`CC1(C)CC[C@]2(C(=O)OCc3nnc(-c4ccc(Cl)cc4)o3)[C@H](O)C[C@]3(C)C(=CC[C@@H]4[C@@]5(C)CC[C@H](O)[C@@](C)(C=O)[C@@H]5CC[C@]43C)[C@@H]2C1` [Compound B3, (5-(4-chlorophenyl)-1,3,4-oxadiazol-2-yl)methyl (4aR,5R,6aS,6bR,8aR,9S,10S,12aR,12bR,14bS)-9-formyl-5,10-dihydroxy-2,2,6a,6b,9,12a-hexamethyl-1,3,4,5,6,6a,6b,7,8,8a,9,10,11,12,12a,12b,13,14b-octadecahydropicene-4a (2H)-carboxylate] had a melting point of 132 to 134 °C. Further, the 50% inhibitory concentration (IC50) in series [1] amounted to 5.01 ± 1.12 µM. Moreover, the IC50 in series [2] was over 10 µM. This compound also returned an IC50 in series [3] of over 10 µM. In series [4], this compound came in with a concentration for half-maximal inhibition (IC50) of over 10 µM. For the same compound, in series [5], the 50% inhibitory concentration (IC50) stood at 8.18 ± 1.85 µM.
`COc1ccc(-c2nnc(COC(=O)[C@]34CCC(C)(C)C[C@H]3C3=CC[C@@H]5[C@@]6(C)CC[C@H](O)[C@@](C)(C=O)[C@@H]6CC[C@@]5(C)[C@]3(C)C[C@H]4O)o2)cc1` [Compound B4, (5-(4-methoxyphenyl)-1,3,4-oxadiazol-2-yl)methyl (4aR,5R,6aS,6bR,8aR,9S,10S,12aR,12bR,14bS)-9-formyl-5,10-dihydroxy-2,2,6a,6b,9,12a-hexamethyl-1,3,4,5,6,6a,6b,7,8,8a,9,10,11,12,12a,12b,13,14b-octadecahydropicene-4a (2H)-carboxylate] displayed a melting point of 126 to 128 °C. Further, the half-maximal inhibitory concentration (IC50) in series [1] is 3.65 ± 1.06 µM. In series [2], this compound displayed an IC50 of over 10 µM. Further, the IC50 in series [3] was 9.15 ± 2.21 µM. In addition, the half-inhibitory concentration (IC50) in series [4] amounted to 8.38 ± 2.22 µM. Moreover, half-maximal inhibition in series [5] (IC50) was put at 7.23 ± 1.56 µM.
